Reference: patent publication US9580444B2, “Polycyclic pyrazolinone derivative and herbicide comprising same as effective component thereof” (priority 2013, dated 2017)

How the values were obtained:
Format in all cases: in vivo
[1] = test system: Amaranthus viridis (green amaranthus); experiment: Test Example-2: herbicidal effect by a soil treatment before weeds are generated under upland field conditions; details: application amount 500 g a.i/ha, soil spray treatment before weeds are generated, about 21 days after the treatment, score 0 to 5
Summary of the method: (§1)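 Pre-emergence soil treatment: seeds sown in upland soil and covered with about 0.5 cm soil were sprayed the next day with diluted wettable powder or emulsifiable concentrate at a predetermined dosage. Weed control and corn injury were scored on a 0–5 scale about 21 days after treatment.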

[2] = test system: Chenopodium album (common lambsquarters); experiment: as above; details: application amount 500 g a.i/ha, soil spray treatment before weeds are generated, about 21 days after the treatment, score 0 to 5
Summary of the method: as §1

[3] = test system: Abutilon theophrasti (velvetleaf); experiment: Test Example-3: herbicidal effect by a treatment before weeds are generated under upland field conditions; details: upland soil treatment before emergence, about 21 days after treatment, score 0-5
Text: (§2) Using the formulation prepared according to the methods described above, the herbicidal effect of the bicyclic pyrazolinone derivative of the invention according to the methods shown in Test Examples below was examined. The herbicidal effect with respect to the test weeds or the phytotoxicity with respect to the test crops was examined according to the following criteria, and evaluated in six stage scores of 0 to 5. A vat having an area of 81 cm^2 and a depth of 3.5 cm was filled with upland soil, then, seeds of Ipomoea purpurea (tall morning glory), Amaranthus viridis (green amaranthus), Abutilon theophrasti (velvetleaf), Chenopodium album (common lambsquarters), and corn were seeded thereto, and the seeds were covered with soil of about 0.5 cm. Next day, a wettable powder or an emulsifiable concentrate of the compound of the present invention prepared according to Formulation Example was diluted, and a spray treatment was uniformly performed on the covered oil so as to be a predetermined dosage. The herbicidal effect with respect to the test weeds and the phytotoxicity with respect to corn about 21 days after the treatment were evaluated according to the evaluation criteria in six stages of 0 to 5 described above.

[4] = test system: Amaranthus viridis (green amaranthus); experiment: as above; details: upland soil treatment before emergence, about 21 days after treatment, score 0-5
Text: as §2

[5] = test system: Chenopodium album (common lambsquarters); experiment: as above; details: upland soil treatment before emergence, about 21 days after treatment, score 0-5
Text: as §2

[6] = test system: Ipomoea purpurea (tall morning glory); experiment: as above; details: upland soil treatment before emergence, about 21 days after treatment, score 0-5
Text: as §2

[7] = test system: corn; experiment: Test Example-2: phytotoxicity by a soil treatment before weeds are generated under upland field conditions; details: application amount 500 g a.i/ha, soil spray treatment before weeds are generated, about 21 days after the treatment, score 0 to 5
Summary of the method: as §1

[8] = test system: corn; experiment: Test Example-4: phytotoxicity by a foliage treatment after weeds are generated under upland field conditions; details: 500 g a.i/ha, foliage treatment after emergence, about 14 days after treatment, score 0-5
Summary of the method: (§3)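 Upland soil; seeds covered ~0.5 cm, grown 14 d. Foliar spray of diluted WP or EC, predetermined dose, 4000 L water/ha. Herbicidal effect and corn phytotoxicity scored on a six-stage 0–5 scale ~14 d post-treatment.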

[9] = test system: Abutilon theophrasti (velvetleaf); experiment: Test Example-4: herbicidal effect by a foliage treatment after weeds are generated under upland field conditions; details: 500 g a.i/ha, foliage treatment after emergence, about 14 days after treatment, score 0-5
Summary of the method: as §3

[10] = test system: Amaranthus viridis (green amaranthus); experiment: as above; details: 500 g a.i/ha, foliage treatment after emergence, about 14 days after treatment, score 0-5
Summary of the method: as §3

[11] = test system: Chenopodium album (common lambsquarters); experiment: as above; details: 500 g a.i/ha, foliage treatment after emergence, about 14 days after treatment, score 0-5
Summary of the method: as §3

[12] = test system: corn; experiment: Test Example-3: phytotoxicity by a treatment before weeds are generated under upland field conditions; details: upland soil treatment before emergence, about 21 days after treatment, score 0-5
Text: as §2

[13] = test system: corn; experiment: Test Example-5: phytotoxicity by a foliage treatment after weeds are generated under upland field conditions; details: foliage treatment after emergence, about 14 days after treatment, score 0-5
Text: as §2, with “While watering was suitably performed on there, the seeds were grown for 14 days. A” for “Next day, a”, “foliage portion of the plant” for “covered oil”, “dosage in the amount of water of 4000 L per hectare.” for “dosage.”, “14” for “21”

[14] = test system: Abutilon theophrasti (velvetleaf); experiment: Test Example-5: herbicidal effect by a foliage treatment after weeds are generated under upland field conditions; details: foliage treatment after emergence, about 14 days after treatment, score 0-5
Text: as §2, with “While watering was suitably performed on there, the seeds were grown for 14 days. A” for “Next day, a”, “foliage portion of the plant” for “covered oil”, “dosage in the amount of water of 4000 L per hectare.” for “dosage.”, “14” for “21”

[15] = test system: Amaranthus viridis (green amaranthus); experiment: as above; details: foliage treatment after emergence, about 14 days after treatment, score 0-5
Text: as §2, with “While watering was suitably performed on there, the seeds were grown for 14 days. A” for “Next day, a”, “foliage portion of the plant” for “covered oil”, “dosage in the amount of water of 4000 L per hectare.” for “dosage.”, “14” for “21”

[16] = test system: Chenopodium album (common lambsquarters); experiment: as above; details: foliage treatment after emergence, about 14 days after treatment, score 0-5
Text: as §2, with “While watering was suitably performed on there, the seeds were grown for 14 days. A” for “Next day, a”, “foliage portion of the plant” for “covered oil”, “dosage in the amount of water of 4000 L per hectare.” for “dosage.”, “14” for “21”

[17] = test system: Ipomoea purpurea (tall morning glory); experiment: as above; details: foliage treatment after emergence, about 14 days after treatment, score 0-5
Text: as §2, with “While watering was suitably performed on there, the seeds were grown for 14 days. A” for “Next day, a”, “foliage portion of the plant” for “covered oil”, “dosage in the amount of water of 4000 L per hectare.” for “dosage.”, “14” for “21”

[18] = test system: Echinochloa oryzicola (barnyard grass); experiment: Test Example-1: herbicidal effect by a treatment before weeds are generated under submerged conditions; details: 500 g a.i/ha, pre-emergence treatment, about 15 days after treatment, score 0-5
Summary of the method: (§4)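 Pre-emergence, submerged paddy soil; WP/EC formulation diluted, applied to floodwater at seeding day at predetermined dose; visual herbicidal score 0–5 at ~15 days after treatment.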

[19] = test system: Eleocharis acicularis (needle spikerush); experiment: as above; details: 500 g a.i/ha, pre-emergence treatment, about 15 days after treatment, score 0-5
Summary of the method: as §4

[20] = test system: Monochoria vaginalis (monochoria); experiment: as above; details: 500 g a.i/ha, pre-emergence treatment, about 15 days after treatment, score 0-5
Summary of the method: as §4

[21] = test system: other annual broad leaf weeds (Lindernia procumbens, Rotala indica, Elatine triandra); experiment: as above; details: 500 g a.i/ha, pre-emergence treatment, about 15 days after treatment, score 0-5
Summary of the method: as §4

[22] = test system: Cyperus difformis (smallflower umbrella plant); experiment: as above; details: 500 g a.i/ha, pre-emergence treatment, about 15 days after treatment, score 0-5
Summary of the method: as §4

[23] = test system: Scirpus juncoides (bulrush); experiment: as above; details: 500 g a.i/ha, pre-emergence treatment, about 15 days after treatment, score 0-5
Summary of the method: as §4

Question: For `C#CCOc1cc(-c2c(Cl)n3n(c2=O)CCOCC3)c(Cl)cc1Cl` [Example 1-306], which “Herbicidal effect Amaranthus viridis” value [1] is on record?
Answer: 5 (Herbicidal effect/phytotoxicity was 90% or greater)

Question: What about the “Herbicidal effect Chenopodium album” value [2] of the same compound?
Answer: 5 (Herbicidal effect/phytotoxicity was 90% or greater)

Question: And the “Herbicidal effect Abutilon theophrast” value ([3]; 50 g a.i/ha)?
Answer: 3 (Herbicidal effect/phytotoxicity was 50% to 70%)

Question: What about the “Herbicidal effect Abutilon theophrast” value ([3]; 100 g a.i/ha) of the same compound?
Answer: 4 (Herbicidal effect/phytotoxicity was 70% to 90%)

Question: What about the “Herbicidal effect Amaranthus viridis” value ([4]; 50 g a.i/ha) of the same compound?
Answer: 5 (Herbicidal effect/phytotoxicity was 90% or greater)

Question: What about the “Herbicidal effect Amaranthus viridis” value ([4]; 100 g a.i/ha) of the same compound?
Answer: 5 (Herbicidal effect/phytotoxicity was 90% or greater)

Question: And the “Herbicidal effect Chenopodium album” value ([5]; 50 g a.i/ha)?
Answer: 5 (Herbicidal effect/phytotoxicity was 90% or greater)

Question: What about the “Herbicidal effect Chenopodium album” value ([5]; 100 g a.i/ha) of the same compound?
Answer: 5 (Herbicidal effect/phytotoxicity was 90% or greater)

Question: What about the “Herbicidal effect Ipomoea purpurea” value ([6]; 50 g a.i/ha) of the same compound?
Answer: 4 (Herbicidal effect/phytotoxicity was 70% to 90%)

Question: And the “Herbicidal effect Ipomoea purpurea” value ([6]; 100 g a.i/ha)?
Answer: 5 (Herbicidal effect/phytotoxicity was 90% or greater)

Question: And the “Phytotoxicity Corn” value [7]?
Answer: 1 (Herbicidal effect/phytotoxicity was 10% to 30%)

Question: What about the “Phytotoxicity Corn” value [8] of the same compound?
Answer: 1 (Herbicidal effect/phytotoxicity was 10% to 30%)

Question: And the “Herbicidal effect Abutilon theophrast” value [9]?
Answer: 5 (Herbicidal effect/phytotoxicity was 90% or greater)

Question: What about the “Herbicidal effect Amaranthus viridis” value [10] of the same compound?
Answer: 5 (Herbicidal effect/phytotoxicity was 90% or greater)

Question: What about the “Herbicidal effect Chenopodium album” value [11] of the same compound?
Answer: 5 (Herbicidal effect/phytotoxicity was 90% or greater)

Question: What about the “Phytotoxicity Corn” value ([12]; 50 g a.i/ha) of the same compound?
Answer: 0 (Herbicidal effect/phytotoxicity was 0% to 10%)

Question: And the “Phytotoxicity Corn” value ([12]; 100 g a.i/ha)?
Answer: 1 (Herbicidal effect/phytotoxicity was 10% to 30%)

Question: What about the “Phytotoxicity Corn” value ([13]; 12.5 g a.i/ha) of the same compound?
Answer: 0 (Herbicidal effect/phytotoxicity was 0% to 10%)

Question: What about the “Phytotoxicity Corn” value ([13]; 25 g a.i/ha) of the same compound?
Answer: 0 (Herbicidal effect/phytotoxicity was 0% to 10%)

Question: What about the “Herbicidal effect Abutilon theophrasti” value ([14]; 12.5 g a.i/ha) of the same compound?
Answer: 5 (Herbicidal effect/phytotoxicity was 90% or greater)

Question: What about the “Herbicidal effect Abutilon theophrasti” value ([14]; 25 g a.i/ha) of the same compound?
Answer: 5 (Herbicidal effect/phytotoxicity was 90% or greater)

Question: And the “Herbicidal effect Amaranthus viridis” value ([15]; 12.5 g a.i/ha)?
Answer: 5 (Herbicidal effect/phytotoxicity was 90% or greater)

Question: And the “Herbicidal effect Amaranthus viridis” value ([15]; 25 g a.i/ha)?
Answer: 5 (Herbicidal effect/phytotoxicity was 90% or greater)

Question: What about the “Herbicidal effect Chenopodium album” value ([16]; 12.5 g a.i/ha) of the same compound?
Answer: 5 (Herbicidal effect/phytotoxicity was 90% or greater)

Question: What about the “Herbicidal effect Chenopodium album” value ([16]; 25 g a.i/ha) of the same compound?
Answer: 5 (Herbicidal effect/phytotoxicity was 90% or greater)

Question: And the “Herbicidal effect Ipomoea purpurea” value ([17]; 12.5 g a.i/ha)?
Answer: 5 (Herbicidal effect/phytotoxicity was 90% or greater)

Question: And the “Herbicidal effect Ipomoea purpurea” value ([17]; 25 g a.i/ha)?
Answer: 5 (Herbicidal effect/phytotoxicity was 90% or greater)

Question: And the “Herbicidal effect Echinochloa oryzicola” value [18]?
Answer: 5 (Herbicidal effect/phytotoxicity was 90% or greater)

Question: What about the “Herbicidal effect Eleocharis acicularis” value [19] of the same compound?
Answer: 5 (Herbicidal effect/phytotoxicity was 90% or greater)

Question: And the “Herbicidal effect Monochoria vaginalis” value [20]?
Answer: 5 (Herbicidal effect/phytotoxicity was 90% or greater)

Question: And the “Herbicidal effect Broadleaf weed” value [21]?
Answer: 5 (Herbicidal effect/phytotoxicity was 90% or greater)

Question: And the “Herbicidal effect Cyperus difformis” value [22]?
Answer: 5 (Herbicidal effect/phytotoxicity was 90% or greater)

Question: What about the “Herbicidal effect Scirpus juncoides” value [23] of the same compound?
Answer: 5 (Herbicidal effect/phytotoxicity was 90% or greater)
